Experimental findings from patent US11026426B2, “Oxadiazole and phenol derivatives as antibacterial and/or herbicidal agents” (NORTHERN ILLINOIS RESEARCH FOUNDATION, priority 2017, dated 2021) are described below.

For data set [1], the system named is Corynebacterium xerosis. Description: Antibacterial preliminary screening CX. Note: key: 0 represents no inhibition; 3 is comparable to commercial antibiotic control. The format is cell-based. The settings on record: score 0-3.
For data set [2], the system named is Burkholderia thailandensis. It counts as cell-based. The note with it: preliminary screening, score 0-3.
The subject of data set [3] is Escherichia coli. Description: Antibacterial preliminary screening EC. Note: key: 0 represents no inhibition; 3 is comparable to commercial antibiotic control. The format is cell-based. The settings on record: score 0-3.
Data set [4] has as its target Lycopersicon esculentum IspE (LeIspE) (Solanum lycopersicum, UniProt P93841). The data set can be described thus: Thermal shift assay against LeIspE. It counts as binding.
Data set [5] has as its system lettuce seeds. Description: Lettuce leaf assay. The format is in vivo. Set-up: key: 0 (no effect); 5(complete inhibition or bleaching). The note with it: ranking 0-5. From the text:
The lettuce leaf assay is a qualitative assay used to determine the relative effectiveness of the test compounds at inhibition of germination of seeds and root development as well as causing bleaching of leaves. Isoprenoid synthesis is vital in plants as isoprene-product gibberellins are a class of growth hormones in plants responsible for stimulating cell elongation and division. In addition, some carotenoids are involved in photosynthesis as components of the electron transport chain. MEP pathway inhibitors have the potential to prevent synthesis of these necessary cellular components and growth hormones resulting in inhibition of germination and root development as well as causing chlorosis, or bleaching in the leaves. The lettuce leaf assay, explores the effects of compounds as potential MEP pathway inhibitors by evaluating the effect on bleaching, root development, and germination of lettuce seeds, which all rely on isoprenoid biosynthesis. […] The assay is a qualitative assay and the effects are given rankings from 0 (no effect) to 5 (complete inhibition or bleaching). In this assay, compounds are dissolved in a volatile organic solvent and applied to filter paper in a petri dish. The solvent is allowed to evaporate and lettuce seeds are applied followed by the addition of 5 mL of water to obtain the necessary concentrations. Seeds are allowed to grow and they are observed on day 3 and day 4 for evaluation.

Data set [6] deals with AtIspD (Arabidopsis thaliana, UniProt P69834). Description: University of Hamburg photometric enzymatic inhibition assay AtIspD. The format is biochemical. The note with it: read-out: AtIspD IC50. Here is the method: (§1) Compounds were subjected to a photometric enzymatic assay to test for inhibition of the plant enzymes Arabidopsis thaliana IspD and IspF, and IspE from Lycopersicon esculentum.
Chain of AtIspD (P69834 62-302): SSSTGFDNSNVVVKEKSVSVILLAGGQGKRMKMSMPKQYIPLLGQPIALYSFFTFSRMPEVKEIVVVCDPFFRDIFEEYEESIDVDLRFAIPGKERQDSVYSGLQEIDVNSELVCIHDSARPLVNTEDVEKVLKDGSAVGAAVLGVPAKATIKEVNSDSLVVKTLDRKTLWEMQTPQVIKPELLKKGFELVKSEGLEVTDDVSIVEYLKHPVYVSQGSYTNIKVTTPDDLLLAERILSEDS
The procedure for AtIspD enzymatic inhibition assay, was performed by making an assay mixture of 100 mM Tris hydrochloride at pH 8.0 with 10 mM MgCl2, 1 mM dithiothreitol, 2.5 mM potassium phosphoenol pyruvate, 2.1 mM CTP, 2 mM ATP, 1 mM of (2R,3S)-2,3-dihydroxy-4-oxopentyl phosphate, 460 μM NADH, 1.1% (v/v) DMSO, 0.4 U IspE, 1 U lactate dehydrogenase, 1 U pyruvate kinase and 2.4 mU IspD in 180 μL of solution. Solutions were incubated at 27° C. and monitored photometrically. By preparing the assay mixture with a large excess of IspE compared to IspD, any inhibition of IspE by the test inhibitor would be insignificant compared to IspD and therefore the rate of the reaction is determined by IspD activity.

The subject of data set [7] is Klebsiella pneumonia. Description: Antibacterial preliminary screening KP. Note: key: 0 represents no inhibition; 3 is comparable to commercial antibiotic control. The format is cell-based. The settings on record: score 0-3.
The subject of data set [8] is Corynebacterium pseudodiphtheriae. The data set can be described thus: Antibacterial preliminary screening CP.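 Note: 0 is no inhibition and 3 matches the commercial antibiotic control.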 The format is cell-based. The settings on record: score 0-3.
The target of data set [9] is T1, Mycobacterium tuberculosis IspD (MtIspD) (Mycobacterium tuberculosis, UniProt P9WKG9).
T1 sequence (P9WKG9 1-231): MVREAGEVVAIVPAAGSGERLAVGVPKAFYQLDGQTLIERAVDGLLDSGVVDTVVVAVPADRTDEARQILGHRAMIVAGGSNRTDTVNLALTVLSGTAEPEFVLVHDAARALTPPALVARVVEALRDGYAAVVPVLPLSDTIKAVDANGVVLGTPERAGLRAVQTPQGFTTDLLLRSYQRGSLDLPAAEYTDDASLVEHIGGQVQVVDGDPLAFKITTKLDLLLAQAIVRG
The data set can be described thus: Thermal shift assay against MtIspD. It counts as binding.

Data set [10] deals with Bacillus cereus. The data set can be described thus: Antibacterial preliminary screening BC. Note: key: 0 represents no inhibition; 3 is comparable to commercial antibiotic control. It counts as cell-based. The settings on record: score 0-3.
Data set [11] deals with Mycobacterium smegmatis. Description: Antibacterial preliminary screening MS. Note: key: 0 represents no inhibition; 3 is comparable to commercial antibiotic control. The note with it: score 0-3. It counts as cell-based.
Data set [12] has as its system Micrococcus luteus. Description: Antibacterial preliminary screening ML. Note: key: 0 represents no inhibition; 3 is comparable to commercial antibiotic control. The format is cell-based. The settings on record: score 0-3.
Data set [13] has as its target LeIspE (Solanum lycopersicum, UniProt P93841). The data set can be described thus: University of Hamburg photometric enzymatic inhibition assay LeIspE. It counts as biochemical, Lycopersicon esculentum. The note with it: read-out: LeIspE IC50. Here is the method: as §1
The IspE assay conditions were very similar to the IspD assay in which the assay mixture was composed of 100 mM Tris hydrochloride at pH 8.0 with 10 mM MgCl2, 1 mM dithiothreitol, 2.5 mM potassium phosphoenol pyruvate, 2 mM ATP, 1 mM of 4-Diphosphocytidyl-2-C-methylerythritol, 460 μM NADH, 1.1% (v/v) DMSO, 2.4 mU IspE, 1 U lactate dehydrogenase, 1 U pyruvate kinase in 180 μL of solution. Solutions were incubated at 27° C. and monitored photometrically.

Data set [14] has as its system Pseudomonas aeruginosa. Description: Antibacterial preliminary screening PA. Note: key: 0 represents no inhibition; 3 is comparable to commercial antibiotic control. It counts as cell-based. The settings on record: score 0-3.
Data set [15] has as its target AtIspF (Arabidopsis thaliana, UniProt Q9CAK8). The data set can be described thus: University of Hamburg photometric enzymatic inhibition assay AtIspF. The format is biochemical. The settings on record: read-out: AtIspF IC50. As for the experimental part: as §1
The IspF assay mixture conditions were as follows: 100 mM Tris hydrochloride at pH 8.0 with 10 mM MgCl2, 1 mM dithiothreitol, 2.5 mM potassium phosphoenol pyruvate, 2 mM ATP, 1 mM of 4-diphosphocytidyl-2C methylerythritol 2-phosphate, 460 μM NADH, 1.1% (v/v) DMSO, 0.5 U CMP kinase, 2.4 mU IspF, 1 U lactate dehydrogenase, 1 U pyruvate kinase in 180 μL of solution. Solutions were incubated at 27° C. and monitored photometrically.

Chain of LeIspE (P93841 89-401): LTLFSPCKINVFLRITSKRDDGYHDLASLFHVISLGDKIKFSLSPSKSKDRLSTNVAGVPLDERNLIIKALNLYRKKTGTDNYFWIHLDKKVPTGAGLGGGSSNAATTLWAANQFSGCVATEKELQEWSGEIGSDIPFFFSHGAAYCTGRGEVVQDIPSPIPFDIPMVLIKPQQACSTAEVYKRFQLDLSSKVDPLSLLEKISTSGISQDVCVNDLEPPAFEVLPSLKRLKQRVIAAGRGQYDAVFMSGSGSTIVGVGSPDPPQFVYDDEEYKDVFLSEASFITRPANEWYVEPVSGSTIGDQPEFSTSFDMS
Chain of Lycopersicon esculentum IspE (LeIspE) (P93841 89-401): as above
Chain of AtIspF (Q9CAK8 53-231): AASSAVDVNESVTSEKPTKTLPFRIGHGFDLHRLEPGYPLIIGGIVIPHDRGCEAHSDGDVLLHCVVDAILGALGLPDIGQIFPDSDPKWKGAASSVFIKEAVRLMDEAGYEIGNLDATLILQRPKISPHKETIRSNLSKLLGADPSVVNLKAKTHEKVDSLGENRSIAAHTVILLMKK

The molecule `CC(C)c1nnc(-c2cc3ccccc3[nH]2)o1` [HGN-240, 2-(1H-indol-2-yl)-5-isopropyl-1,3,4-oxadiazole] gave a melting point of 164 to 170 °C. For the same molecule, the CX score in data set [1] is given as 0. Besides, the BT score in data set [2] is 0. Also, in [3], the EC score is on record as 0. Also, in data set [4], the “LeIspE melting point change” value was −1.50 °C and the LeIspE melting temp was 48.00 °C. For the same molecule, in data set [5] (0.5 mM), the Bleaching amounted to 0, the Germination worked out at 1 and the “Root Dev.” value is given as 0. Besides, in data set [5] (1.0 mM), the Bleaching is recorded as 0, the Germination was found to be 2 and the “Root Dev.” value was 0. The half-inhibitory concentration (IC50) in data set [6] is more than 1000 µM. This molecule also showed a KP score in data set [7] of 0. In addition, in data set [8], the CP score is recorded as 0. Besides, in [9], the “MtIspD melting point change” value came to 0.8 °C and the MtIspD melting temp was 48.8 °C. For the same molecule, the BC score in data set [10] is reported as 0. In data set [11], this molecule displayed an MS score of 0. This molecule also returned an ML score in data set [12] of 0. The half-inhibitory concentration (IC50) in data set [13] was more than 1000 µM. In [14], this molecule showed a PA score of 0. In addition, the concentration for half-maximal inhibition (IC50) in data set [15] is more than 1000 µM.
`Clc1cccc(-c2nnc(-c3cc4ccccc4[nH]3)o2)c1` [HGN-241, 2-(3-chlorophenyl)-5-(1H-indol-2-yl)-1,3,4-oxadiazole] came in with a melting point of 202 to 207 °C. The same molecule displayed a CX score in [1] of 0. Further, in data set [2], the BT score worked out at 0. Moreover, the EC score in [3] worked out at 0. For the same molecule, in [4], the “LeIspE melting point change” value was −1.75 °C and the LeIspE melting temp turned out to be 47.75 °C. Besides, in [5] (0.2 mM), the Bleaching was 0, the Germination was determined as 1 and the “Root Dev.” value was determined as 0. Also, in data set [6], the concentration for half-maximal inhibition (IC50) was more than 1000 µM. The KP score in data set [7] is 0. In [8], this molecule yielded a CP score of 0. In data set [9], the “MtIspD melting point change” value worked out at 0.5 °C and the MtIspD melting temp worked out at 48.5 °C. In data set [10], this molecule came in with a BC score of 0. Besides, the MS score in [11] is recorded as 0. This molecule also displayed an ML score in data set [12] of 0. For the same molecule, the IC50 in [13] was 149 ± 41 µM. In [14], this molecule returned a PA score of 0. In addition, the IC50 in data set [15] was more than 1000 µM.
With `Cc1ccc(-c2nnc(-c3cc4ccccc4[nH]3)o2)cc1` [HGN-242, 2-(1H-indol-2-yl)-5-(p-tolyl)-1,3,4-oxadiazole], the melting point is 228 to 234 °C. The CX score in data set [1] amounted to 0. The molecule further returned a BT score in data set [2] of 0. In [3], this molecule gave an EC score of 0. In data set [4], the “LeIspE melting point change” value is −1.75 °C and the LeIspE melting temp stood at 47.75 °C. Moreover, in [5] (0.5 mM), the Bleaching was 0, the Germination is 2 and the “Root Dev.” value turned out to be 0. Also, in data set [5] (1.0 mM), the Bleaching came out at 0, the Germination was 4 and the “Root Dev.” value came out at 0. Further, in data set [6], the half-maximal inhibitory concentration (IC50) was found to be 225 ± 17 µM. Moreover, the KP score in [7] is 0. For the same molecule, in data set [8], the CP score is 0. In data set [9], the “MtIspD melting point change” value worked out at 0.8 °C and the MtIspD melting temp was 48.8 °C. The molecule also returned a BC score in data set [10] of 0. The MS score in data set [11] is 0. Moreover, in data set [12], the ML score turned out to be 0. Moreover, in [13], the half-inhibitory concentration (IC50) came out at 109 ± 35 µM. This molecule had a PA score in [14] of 0. Moreover, in [15], the IC50 is more than 1000 µM.

What is called IC50 is the concentration needed to halve the response being measured. Broadly, the melting point is the temperature of the solid-liquid transition.
